Measured values reported in US20240381872A1, “SUBSTITUTED 2,3-DIHYDRO[1,3]THIAZOLO[4,5-B]PYRIDINES, SALTS THEREOF AND THEIR USE AS HERBICIDALLY ACTIVE SUBSTANCES” (BAYER AKTIENGESELLSCHAFT, priority 2021, published 2024).

How the values were obtained:
Type in all cases: in vivo
[1] = system: Triticum aestivum (TRZAS); assay: Post-emergence effects on crop plants, section F (Table F2); settings: for post-emergence activity against TRZAS in %: crop plant damage
Procedure, shortened: (§1)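 Sandy loam, greenhouse, controlled conditions. Spray at single-leaf stage (2–3 wk post-sowing); WP/EC aqueous suspension/emulsion + 0.5% additive, 600 l water/ha; rate ≤320 g/ha. Visual scoring ca. 3 wk post-spray vs untreated, % effect.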

[2] = system: Alopecurus myosuroides (ALOMY); assay: Herbicidal pre-emergence action, section C (Table C2); settings: visual grading after ca. 3 weeks vs untreated controls
Text: (§2) Seeds of mono- and dicotyledonous weed plants and crop plants were sown, in plastic or organic planting pots, in sandy loam and covered with soil. The compounds according to the invention, formulated in the form of wettable powders (WP) or as emulsifiable concentrates (EC), were applied to the surface of the covering soil as aqueous suspension or emulsion, with the addition of 0.5% of an additive, at an application rate of 600 l of water/ha (converted). Following treatment, the pots were placed in a greenhouse and kept under optimum growth conditions for the test plants. The visual grading of the damage to the test plants was carried out after ca. 3 weeks in comparison to untreated controls (herbicidal effect in percent (%): 100% effect=plants have died off, 0% effect=as control plants).

Setaria viridis (SETVI) = assay: Herbicidal pre-emergence action, section C (Table C8); settings: visual grading after ca. 3 weeks
Procedure, shortened: (§3)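 Pre-emergence, sandy loam. WP/EC formulations applied to covering soil surface, aqueous, + 0.5% additive, 600 l water/ha. Greenhouse, optimum growth. Visual % damage vs untreated, ca. 3 wk.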

[3] = system: Amaranthus retroflexus (AMARE); assay: Herbicidal pre-emergence action, section C (Table C11); settings: visual grading after ca. 3 weeks
Procedure, shortened: as §3

[4] = system: Triticum aestivum (TRZAS); assay: Pre-emergence effects on crop plants, section D (Table D2); settings: visual grading after ca. 3 weeks
Procedure, shortened: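 Pre-emergence soil-surface spray, 320 g/ha or below, 600 l water/ha + 0.5% additive; WP/EC formulations; sandy loam; greenhouse; visual % damage vs untreated at ~3 wk.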

Stellaria media (STEME) = assay: Herbicidal pre-emergence action, section A (Table A9)
Procedure, shortened: (§4)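 Visual scoring at approximately 3 weeks, relative to untreated pots, gave percent effect after compounds in WP or EC form were sprayed onto covering soil of sown seeds (sandy loam) in water with 0.5% additive at 600 l/ha, then kept in greenhouse.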

Oryza sativa (ORYZA) = assay: Post-emergence effects on crop plants, section F (Table F3); settings: application rate 320 g/ha
Procedure, shortened: as §1

[5] = system: Alopecurus myosuroides (ALOMY); assay: Herbicidal pre-emergence action, section A (Table A2); settings: visual grading after ca. 3 weeks vs untreated controls
Procedure, shortened: as §4

Poa annua (POAAN) = assay: Herbicidal post-emergence action, section B (Table B7); settings: visual rating about 3 weeks after treatment vs untreated controls
Procedure, shortened: (§5)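 Scores are visual % activity relative to untreated plants (0% = like control, 100% = dead), taken about 3 weeks after spraying. Compounds, as WP or EC in water with 0.5% additive at 600 L/ha, went onto one-leaf-stage weeds grown from seed in sandy loam under greenhouse conditions.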

[6] = system: Digitaria sanguinalis (DIGSA); assay: Herbicidal post-emergence action, section B (Table B12); settings: application rate 1280 g/ha; visual rating about 3 weeks after treatment vs untreated controls
Procedure, shortened: as §5

Veronica persica (VERPE) = assay: Herbicidal pre-emergence action, section C (Table C10); settings: visual grading after ca. 3 weeks
Text: as §2

Row | Structure (SMILES) | post-emergence activity against TRZAS in % ([1]; application rate 80 g/ha) [%] | pre-emergence activity against ALOMY in % ([2]; application rate 320 g/ha) [%] | pre-emergence activity against SETVI in % (Setaria viridis (SETVI); application rate 80 g/ha) [%] | pre-emergence activity against TRZAS in % (crop plant damage) ([4]; application rate 80 g/ha) [%] | post-emergence activity against DIGSA in % [6] [%] | pre-emergence activity against STEME in % (Stellaria media (STEME); application rate 320 g/ha) [%] | post-emergence activity against POAAN in % (Poa annua (POAAN); application rate 320 g/ha) [%] | pre-emergence activity against STEME in % (Stellaria media (STEME); application rate 1280 g/ha) [%] | pre-emergence activity against ALOMY in % ([5]; application rate 1280 g/ha) [%] | other results
1 | Clc1ccccc1-c1nc2c(cc1Br)SCN2 [Example I-041, 6-bromo-5-(2-chlorophenyl)-2,3-dihydro[1,3]thiazolo[4,5-b]pyridine] | – | – | – | – | – | – | – | – | – | percent crop plant damage (wheat, post-emergence) at 320 g/ha ([1]; Triticum aestivum, 504 h, application rate 320 g/ha, read-out: post-emergence activity against TRZAS in %): 0%; pest or weed control at 320 g/ha ([2]; Alopecurus myosuroides, pre-emergence, 504 h, application rate 320 g/ha, read-out: pre-emergence activity against ALOMY in %): 80%; pest or weed control at 80 g/ha (Setaria viridis (SETVI); Setaria viridis, pre-emergence, 504 h, application rate 80 g/ha, read-out: pre-emergence activity against SETVI in %): 90%; pest or weed control at 80 g/ha ([3]; Amaranthus retroflexus, pre-emergence, 504 h, application rate 80 g/ha, read-out: pre-emergence activity against AMARE in %): 90%; pre-emergence activity against TRZAS in % (crop plant damage) ([4]; application rate 320 g/ha): 20%; pest or weed control at 1280 g/ha (Stellaria media (STEME); Stellaria media, 504 h, application rate 1280 g/ha, read-out: pre-emergence activity against STEME in %): 100%; percent crop plant damage at 320 g/ha (Oryza sativa (ORYZA); Oryza sativa, 504 h, read-out: post-emergence activity against ORYZA in %): 0%; pest or weed control at 1280 g/ha ([5]; Alopecurus myosuroides, pre-emergence, 504 h, application rate 1280 g/ha, read-out: pre-emergence activity against ALOMY in %): 90%; pest or weed control at 320 g/ha (Poa annua (POAAN); Poa annua, post-emergence, 504 h, application rate 320 g/ha, read-out: post-emergence activity against POAAN in %): 90%
2 | Cc1cc2c(nc1-c1ccccc1F)N(C(=O)C13CCCC1C(Cl)=NO3)CS2 (centres unmarked) [Example I-104] | 0 | 100 | 100 | 0 | 90 | 90 | 90 | – | – | pre-emergence activity against AMARE in % ([3]; application rate 80 g/ha): 80%; pre-emergence activity against ALOMY in % ([5]; application rate 320 g/ha): 90%
3 | COC(=O)CCC(=O)N1CSc2cc(Cl)c(-c3ccccc3F)nc21 [Example I-003] | – | 80 | – | 20 | 100 | – | 100 | 90 | 100 | post-emergence activity against TRZAS in % ([1]; application rate 320 g/ha): 0%; pre-emergence activity against SETVI in % (Setaria viridis (SETVI); application rate 320 g/ha): 100%; post-emergence activity against ORYZA in % (Oryza sativa (ORYZA); crop plant damage): 0%
4 | COC(=O)CCC(=O)N1CSc2cc(C)c(-c3ccccc3F)nc21 [Example I-010] | – | – | – | – | 90 | 100 | – | – | 100 | pre-emergence activity against ALOMY in % ([2]; application rate 80 g/ha): 90%; pre-emergence activity against VERPE in % (Veronica persica (VERPE); application rate 320 g/ha): 90%; pre-emergence activity against AMARE in % ([3]; application rate 320 g/ha): 90%; post-emergence activity against POAAN in % (Poa annua (POAAN); application rate 1280 g/ha): 90%
5 | Cc1cc2c(nc1-c1ccccc1F)N(S(=O)(=O)Cc1ccc(F)cc1)CS2 [Example I-122] | 20 | 100 | – | 10 | 90 | 90 | 90 | – | 100 | pre-emergence activity against SETVI in % (Setaria viridis (SETVI); application rate 320 g/ha): 100%; pre-emergence activity against VERPE in % (Veronica persica (VERPE); application rate 320 g/ha): 80%
6 | Cc1ccccc1-c1nc2c(cc1C)SCN2C(=O)C1(C)CC(Cl)=NO1 (centres unmarked) [Example I-137] | 0 | – | 100 | 0 | 90 | – | 90 | 100 | – | pre-emergence activity against ALOMY in % ([2]; application rate 80 g/ha): 80%; pre-emergence activity against VERPE in % (Veronica persica (VERPE); application rate 80 g/ha): 80%; pre-emergence activity against AMARE in % ([3]; application rate 80 g/ha): 90%; pre-emergence activity against ALOMY in % ([5]; application rate 320 g/ha): 90%
7 | Cc1cc2c(nc1-c1ccccc1)N(C(=O)C1(C)CC(Cl)=NO1)CS2 (centres unmarked) [Example I-088] | – | 90 | 100 | 0 | 100 | – | 90 | 90 | 100 | post-emergence activity against TRZAS in % ([1]; application rate 320 g/ha): 20%; pre-emergence activity against AMARE in % ([3]; application rate 320 g/ha): 90%
